Results reported in paper PMC11444200, “In Vitro Evaluation of Antipseudomonal Activity and Safety Profile of Peptidomimetic Furin Inhibitors” (Biomedicines, 2024).
pKi: −log10 of the molar value. Where two headings read alike, the source gives them in different places.

Experiments:
mice = settings: cited from earlier work; for tolerated i.p. dose: mice
IPEC-J2 cells [1] = assay: CCK-8 cytotoxicity assay in IPEC-J2 cells; format: cell-based, porcine; settings: 50 µM or 100 µM, 24 h
Protocol: The cell line used for the experiments was the IPEC-J2 from the jejunum of porcine. The IPEC-J2 epithelial cell line was a kind gift from Dr. Jody Gookin (Department of Clinical Sciences, College of Veterinary Medicine, North Carolina State University, Raleigh, NC, USA). The cell monolayers were maintained in 75 cm^2 cell culture flasks with filtered caps (Orange Scientific, Braine-l’Alleud, Belgium) at 37 °C in a humidified atmosphere containing 5% CO2. […]
The possible cytotoxic effects of the inhibitors MI-1851 and MI-2415 (structures provided in Figure 1) in different concentrations on IPEC-J2 and those of inhibitor MI-2415 on PHHs were assessed for 24 h by performing the CCK-8 assay (Dojindo Molecular Technologies, Rockville, MD, USA). […] Following three times washing of the wells with PBS, 10 µL CCK-8 reagent mixed with 100 µL fresh Williams’ Medium E was added and the absorbance values were measured at 450 nm using the SpectraMax iD3 microplate reader (Molecular Devices, San José, CA, USA) after 2 h incubation. […]

IPEC-J2 cells [2] = assay: DCFH-DA intracellular ROS assay in IPEC-J2 cells; format: cell-based, porcine; settings: 50 and 100 μM, 24 h
Protocol: (§1) The cell line used for the experiments was the IPEC-J2 from the jejunum of porcine. The IPEC-J2 epithelial cell line was a kind gift from Dr. Jody Gookin (Department of Clinical Sciences, College of Veterinary Medicine, North Carolina State University, Raleigh, NC, USA). The cell monolayers were maintained in 75 cm^2 cell culture flasks with filtered caps (Orange Scientific, Braine-l’Alleud, Belgium) at 37 °C in a humidified atmosphere containing 5% CO2. The culture medium contained 50% Dulbecco’s modified Eagle’s medium (DMEM) and 50% Ham’s F12 Nutrient Mixture (Merck, Darmstadt, Germany) supplemented with 1.5 mmol/L HEPES, 5% fetal bovine serum (FBS) (Biocenter, Budapest, Hungary), 1% insulin/transferrin/sodium selenite medium supplement, 5 ng/mL epidermal growth factor (EGF), and 1% penicillin/streptomycin (all purchased from Invitrogen, Thermo Fisher Scientific, Waltham, MA, USA). Cells were used between passages 40 and 55. […]
The ability of inhibitors MI-1851 and MI-2415 to induce oxidative stress (ROS) within IPEC-J2 as well as of compound MI-2415 within PHHs was investigated with 2,7-dichloro-dihydro-fluorescein diacetate (DCFH2-DA). […] A Victor X2 2030 (Perkin Elmer, Waltham, MA, USA) was used to determine the fluorescence values of the samples (excitation wavelength: 485 nm, emission wavelength: 535 nm), which are directly proportional to the ROS generation.

IPEC-J2 cells [3] = assay: Amplex Red extracellular H2O2 assay in IPEC-J2 cells; format: cell-based, porcine; settings: 50 or 100 μM, 24 h
Protocol: as §1, with “55. The media were changed every second day. Cells were seeded onto 96- and 24-well polystyrene cell culture plates for the cell viability and the Amplex Red/DCFH-DA assay, respectively.” for “55.”

[4] = system: α1-acid glycoprotein (AGP); assay: fluorescence quenching of α1-acid glycoprotein; format: binding; settings: AGP 2 μM, ligand 0.25-2.5 μM, PBS pH 7.4, λex 285 nm
Protocol: Human serum albumin (HSA) (product code: A1653) and α1-acid glycoprotein (AGP) (product code: G9885) were purchased from Merck (Darmstadt, Germany) and used as received. Fluorescence emission spectra were recorded using a Hitachi F-4500 fluorometer (Tokyo, Japan), while absorption spectra were collected by employing a Hitachi U-3900 UV–Vis spectrophotometer (Tokyo, Japan). Before the evaluation of fluorescence data, the inner-filter effects of MI-1851 and MI-2415 were corrected based on the following equation [23, 24]:(1) Icor=Iobs×e^(Aex+Aem)/2 where Icor and Iobs are the corrected and observed emission intensities, respectively; and Aex and Aem are the absorbance of the MI compounds tested at the excitation and emission wavelengths used, respectively.
To examine the potential interaction of inhibitor MI-2415 with HSA, increasing levels of the ligand (final concentrations: 0, 1, 2, 3, 4, 7, and 10 μM) were added to a standard amount of the protein (2 μM) in PBS (pH 7.4), and then the emission spectra were recorded (λex = 295 nm, λem = 340 nm). Furthermore, the quenching effects of inhibitors MI-1851 and MI-2415 (both 0, 0.25, 0.5, 1, 1.5, 2, and 2.5 μM) were also tested on the emission signal of AGP (2 μM) in PBS (λex = 285 nm, λem = 337 nm).

furin = settings: read-out: Ki for furin; cited from earlier work

SMILES	tolerated i.p. dose (mice; no higher dose was tested)	cell viability of IPEC-J2 cells (IPEC-J2 cells [1])	intracellular ROS levels in IPEC-J2 cells (IPEC-J2 cells [2])	extracellular H2O2 production (redox balance) in IPEC-J2 cells (IPEC-J2 cells [3])	effect on fluorescence signal of AGP at 337 nm [4]	pKi (furin)	tolerated i.p. dose (mice)	mortality (mice; mouse, in vivo, ip, 20 mg/kg)
CC(C)(C)[C@H](NC(=O)[C@H](CCONC(=N)N)NC(=O)Cc1ccc(CNC(=N)N)cc1)C(=O)N[C@@H](CCONC(=N)N)C(=O)NCc1ccc(C(=N)N)cc1 [MI-1851]	15 mg/kg	did not show a significant decrease in cell viability	no significant alterations in intracellular ROS levels	slightly, but statistically not significantly	did not induce relevant changes in the fluorescence signal of AGP	11.00		
CC(C)(C)[C@H](NC(=O)[C@H](CCONC(=N)N)NC(=O)Cc1ccc(CNC(=N)N)cc1)C(=O)N[C@@H](CCONC(=N)N)C(=O)NCc1ccc2c(c1)CN=C2N [MI-2415]		did not show a significant decrease in cell viability	no significant alterations in intracellular ROS levels	slightly, but statistically not significantly	did not induce relevant changes in the fluorescence signal of AGP	11.15	15 mg/kg	one of four mice died
